From PubChem BioAssay (NCI) come the findings set out here.

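A five-concentration, 48-hour dose response in 96-well plates underlies each endpoint, interpolated linearly between surrounding concentrations. At the GI50, growth is halved. TGI: total growth inhibition.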

Among the test systems are MOLT-4 leukemia; SK-OV-3 ovarian; SR leukemia; IGROV1 ovarian; CCRF-CEM leukemia; M14 melanoma; TK-10 renal; OVCAR-3 ovarian; HOP-62 NSCLC; SW-620 colon.
What all share (assay): growth of human tumour cells (NCI), 48 h

Consider `NC(N)=NS(=O)(=O)c1ccc(NC(=O)c2c3ccccc3nc3ccccc23)cc1`, for which the TGI in the assay on MOLT-4 leukemia, with SK-OV-3 ovarian, in the assay with SR leukemia, in the assay on IGROV1 ovarian, in the assay on CCRF-CEM leukemia and in the assay with M14 melanoma was greater than 100 µM throughout. Further, the TGI in the assay with TK-10 renal, in the assay with OVCAR-3 ovarian, in the assay with HOP-62 NSCLC and with SW-620 colon was greater than 100 µM each time.
Take `CN(C)CCCn1c2c(c3ccncc3c1=O)C(=O)c1ccccc1-2`: the GI50 in the assay on MOLT-4 leukemia was 324 nM; with SK-OV-3 ovarian, 12.1 µM; in the assay with SR leukemia, 313 nM; in the assay on IGROV1 ovarian, 955 nM; with CCRF-CEM leukemia, 770 nM; in the assay on M14 melanoma, 1600 nM. The GI50 with TK-10 renal was 1980 nM; in the assay with OVCAR-3 ovarian, 1990 nM; in the assay on HOP-62 NSCLC, 862 nM; in the assay with SW-620 colon, 410 nM. Further, the TGI with SK-OV-3 ovarian was 65 µM; in the assay on SR leukemia, 11.9 µM; in the assay with IGROV1 ovarian, greater than 100 µM; with CCRF-CEM leukemia, 13 µM; in the assay with M14 melanoma it was 5.71 µM; with TK-10 renal it was 24.3 µM. The TGI with OVCAR-3 ovarian is 9.6 µM; with HOP-62 NSCLC it was 20.6 µM; with SW-620 colon, 13.1 µM.
On to `C=CCn1c(=O)c(-c2ccccc2)c(O)c2ccccc21`, for which the TGI with MOLT-4 leukemia, with SR leukemia, in the assay on IGROV1 ovarian, in the assay with CCRF-CEM leukemia, in the assay with TK-10 renal and in the assay on OVCAR-3 ovarian was greater than 100 µM each time. Moreover, the TGI in the assay on HOP-62 NSCLC and with SW-620 colon was greater than 100 µM each time.
As for `COc1cc(/C=C/C(=O)C(C)(C)C)cc(OC)c1OC`, the TGI in the assay on MOLT-4 leukemia, in the assay with SK-OV-3 ovarian, with SR leukemia, in the assay with CCRF-CEM leukemia, in the assay on M14 melanoma and with TK-10 renal was greater than 100 µM throughout. In addition, the TGI with OVCAR-3 ovarian is greater than 100 µM; with HOP-62 NSCLC, greater than 100 µM; with SW-620 colon, 81.2 µM.
On to `Nc1nc(NC(=O)C2=NS(=O)(=O)c3cc(S(N)(=O)=O)c(Cl)cc3N2)n[nH]1`, for which the TGI in the assay with MOLT-4 leukemia, in the assay on SK-OV-3 ovarian, with SR leukemia, with IGROV1 ovarian, with CCRF-CEM leukemia and in the assay with M14 melanoma was greater than 100 µM each time. Moreover, the TGI with TK-10 renal, in the assay on OVCAR-3 ovarian, in the assay on HOP-62 NSCLC and with SW-620 colon was greater than 100 µM in each case.
Consider `COC(=O)c1cc(CNCCc2c[nH]c3ccccc23)on1`, for which the TGI with MOLT-4 leukemia, in the assay on SK-OV-3 ovarian, with SR leukemia, with IGROV1 ovarian, in the assay on CCRF-CEM leukemia and with M14 melanoma was greater than 100 µM each time. Further, the TGI with TK-10 renal, in the assay with OVCAR-3 ovarian, in the assay with HOP-62 NSCLC and with SW-620 colon was greater than 100 µM throughout.
With `Cc1c2cccc-2c(N(C)C)cc2c1[nH]c1ccccc12`, the TGI in the assay on MOLT-4 leukemia was 16.9 µM; with SK-OV-3 ovarian, 15.1 µM; in the assay on SR leukemia, 3.98 µM; in the assay on IGROV1 ovarian, 4.9 µM; with CCRF-CEM leukemia, 12.8 µM; in the assay on M14 melanoma, 18.9 µM. In addition, the TGI with TK-10 renal was 13.2 µM; in the assay on OVCAR-3 ovarian it was greater than 100 µM; with HOP-62 NSCLC it was 15.1 µM; in the assay with SW-620 colon it was 18.9 µM.
Regarding `COc1cc(C=Nc2ccc(Oc3ccc(Cl)cc3)c(Cl)c2)cc(OC)c1OC`, the TGI in the assay on MOLT-4 leukemia is 76 µM; in the assay on SR leukemia it was 54.1 µM; in the assay on IGROV1 ovarian, 67.1 µM; in the assay with CCRF-CEM leukemia it was 66.4 µM; in the assay with M14 melanoma, 58.2 µM; with TK-10 renal, greater than 100 µM. For the same molecule, the TGI in the assay on OVCAR-3 ovarian was 48.4 µM; in the assay with HOP-62 NSCLC, 49 µM; with SW-620 colon it was greater than 100 µM.
In the case of `Cc1ccc(CCNC(=S)SCC(NC(=O)CCC(N)C(=O)O)C(=O)NCC(=O)O)cc1` (centres undefined), the TGI was determined as 3.93 µM with MOLT-4 leukemia; 19.2 µM with SK-OV-3 ovarian; 5.91 µM in the assay with SR leukemia; 4.77 µM in the assay with IGROV1 ovarian; 2.18 µM in the assay on CCRF-CEM leukemia; 2.56 µM with M14 melanoma. Moreover, the TGI was found to be 9.95 µM with TK-10 renal, 5.27 µM in the assay on OVCAR-3 ovarian, 8.08 µM with HOP-62 NSCLC and 3.01 µM in the assay on SW-620 colon.
On to `CC1(C)CC(=O)C2=C(C1)OC1=C(CC(C)(C)CC1=O)C2c1ccccc1Cl` (centres undefined), for which the TGI in the assay with MOLT-4 leukemia, in the assay with SK-OV-3 ovarian, in the assay with SR leukemia, in the assay with IGROV1 ovarian, in the assay on CCRF-CEM leukemia and in the assay on M14 melanoma was greater than 100 µM in each case. Also, the TGI in the assay with OVCAR-3 ovarian, with HOP-62 NSCLC and in the assay on SW-620 colon was greater than 100 µM in each case.
Turning to `Cc1ccc(-n2cc(-c3ccc(Cl)cc3)c3c(NNC(=S)NCc4ccccc4)ncnc32)cc1`, the TGI in the assay on MOLT-4 leukemia was greater than 100 µM; in the assay on SK-OV-3 ovarian, 82 µM; in the assay on SR leukemia, 21.5 µM; in the assay on IGROV1 ovarian it was 54.4 µM; with CCRF-CEM leukemia it was greater than 100 µM; with M14 melanoma it was 37.6 µM. Further, the TGI with TK-10 renal was 68.2 µM; in the assay with OVCAR-3 ovarian, 37.4 µM; in the assay with HOP-62 NSCLC it was 85.4 µM; with SW-620 colon it was greater than 100 µM.
On to `COc1ccc(N=Nc2ccc3oc(=O)c(C(=O)Nc4ccc(OC)cc4)cc3c2)cc1`, for which the TGI in the assay on MOLT-4 leukemia was 34.9 µM; in the assay on SK-OV-3 ovarian, 83.5 µM; in the assay on SR leukemia, 87.5 µM; in the assay with IGROV1 ovarian, 44 µM; with CCRF-CEM leukemia, greater than 100 µM; in the assay on M14 melanoma it was 43.5 µM. The TGI was greater than 100 µM in the assay on TK-10 renal, 46.6 µM in the assay with OVCAR-3 ovarian, 30.3 µM with HOP-62 NSCLC and 66.1 µM with SW-620 colon.
With `OB1OCc2ccccc21`, the TGI in the assay with MOLT-4 leukemia is greater than 100 µM; with SK-OV-3 ovarian, 47.1 µM; with SR leukemia it was greater than 100 µM; in the assay on IGROV1 ovarian it was greater than 100 µM; with CCRF-CEM leukemia, 54.9 µM; in the assay with M14 melanoma it was greater than 100 µM. Further, the TGI is greater than 100 µM in the assay on TK-10 renal, greater than 100 µM in the assay on OVCAR-3 ovarian, 62.9 µM in the assay on HOP-62 NSCLC and greater than 100 µM with SW-620 colon.
